According to article PMC5906549, “Cathelicidin-Derived Antimicrobial Peptides Inhibit Zika Virus Through Direct Inactivation and Interferon Pathway” (Frontiers in Immunology, 2018):
Peptide text beside a SMILES is read from it.

What was measured:
ZIKV strain MR766 [1] = assay: ZIKV RNA in infected Vero cells, peptide pre-treatment (real-time RT-PCR); format: cell-based, Zika virus; conditions: for ZIKV RNA compared with untreated controls: peptide 2 µM, 2 h before ZIKV MOI 0.5, re-treated at 24 h, 48-h post-infection, RT-PCR normalized to GAPDH, N = 3
Protocol: (§1) Human fetal astrocytes were derived from a single-cell isolation process of fetal brain tissues as previously described ([25], [26]). Briefly, dissociated brain tissue was incubated with 0.25% trypsin for 30 min, followed by neutralization with 10% fetal bovine serum (FBS), and further dissociated by trituration. The single-cell suspension was cultured as adherent cells in DMEM/F12 (Thermo Fisher Scientific, Waltham, MA, USA), supplemented with 10% FBS, penicillin (50 units/mL), and streptomycin (50 µg/mL) (Thermo Fisher Scientific). […] Vero cells (ATCC, CCL-81), an African green monkey kidney cell line, were maintained in Dulbecco’s Modified Eagle Medium (DMEM) with 5% FBS. Experiments with ZIKV were performed exclusively inside a BioSafety Level 2 (laboratory). All procedures utilized in this study were approved by the Institutional Biosafety Committee (IBC 16-05-013BL2) and followed biosafety level II practices as shown in National Institutes of health (NIH) Guideline Appendix G-II-B. ZIKV strain MR766 (Uganda, 1947) was obtained from ZeptoMetrix Corp., Buffalo, NY, USA, and propagated in Vero cells. ZIKV infection of the Vero cells and fetal astrocytes was previously characterized ([27]) and all infections in the current studies were at the MOI of 0.5.
(§2) Total mRNA was isolated with TRIzol Reagent (Thermo Fisher Scientific) and RNeasy Mini Kit (QIAGEN Inc., Valencia, CA, USA) following the manufacturer’s recommendations. Two real-time RT-PCR methods were used for the current studies. First, SYBR Green-based RT-PCR assay was used to determine intracellular ZIKV RNA in Vero cells. For this assay, reverse transcription was performed using Verso cDNA synthesis Kit (Thermo Fisher Scientific) and 1 µg of total RNA in a 15-µL final volume. The RT-PCR analyses were performed using 7.5-µL SYBR Green PCR Master Mix (Thermo Fisher Scientific) with 0.5-µL cDNA, 1.5-µL H2O, 5.5-µL oligonucleotide primer pairs at 10 µM. […] GG-3. PCR program: 1, 50°C for 2 min; 2, 95°C for 2 min; 3, 95°C for 15 s; 4, specific annealing temperature for 15 s; 5, 72°C for 1 min. Steps 2–4 were repeated 40 times. All samples were amplified in triplicate for analysis. Relative ZIKV RNA levels were determined and standardized with a GAPDH internal control using comparative ΔΔCT method ([35]). Second, TaqMan-based RT-PCR assay was used to determine intracellular ZIKV RNA and other gene expressions in Figures 3–6 and extracellular ZIKV RNA in Figure 3. The TaqMan assay was performed in a StepOne^TM Real-Time PCR system (Thermo Fisher Scientific). Primers used for TaqMan real-time RT-PCR were all from the Thermo Fisher Scientific, which included ZIKV (forward sequence: 5-[…]-3, reverse sequence: 5- […]-3, and probe sequence: 5′-[…]-3), IFN-α2 (Hs00265051_s1), IFN-β1 (Hs01077958_s1), eukaryotic 18-s rRNA (Hs99999901_s1), β-actin (Hs99999903_m1), and GAPDH (Catalog number: 4310884E). Relative ZIKV mRNA levels were determined and standardized with a GAPDH or 18-s rRNA endogenous control using comparative ΔΔCT method ([35]). […] For ZIKV in supernatants, RNA was extracted from the supernatants through TRIzol™ LS Reagent (Thermo Fisher Scientific, 10296028) following the manufacturer’s manual. […] Quantitative genomic RNA from ZIKV (NR-1838DQ, ATCC) was used as a standard to calculate viral copies.

ZIKV strain MR766 [2] = assay: Intracellular ZIKV RNA in infected human fetal astrocytes, peptide pre-treatment (real-time RT-PCR); format: cell-based, Zika virus; conditions: for Reduction of ZIKV RNA levels: astrocytes, 10 µM, at 48 h; for Intracellular ZIKV RNA, % of the untreated ZIKV group / Dose dependence of intracellular ZIKV RNA decrease: human fetal astrocytes, 48 h; for Intracellular ZIKV RNA, % of the untreated ZIKV group: 2 h pre-treatment, ZIKV MOI 0.5, re-treated at 24 h, normalized to GAPDH, N = 3; for Dose dependence of intracellular ZIKV RNA decrease: pre-treatment 0.4 to 10 µM, ZIKV MOI 0.5
Protocol: as §1, §2

IFN-α2 = IFN-α2 expression in human fetal astrocytes (real-time RT-PCR); format: cell-based; conditions: for IFN-α2 expression in ZIKV-infected fetal astrocytes: ZIKV MOI 0.5, AMPs 0.4 to 10 µM, 48 h; for IFN-α2 expression in ZIKV-infected fetal astrocytes / IFN-α2 expression in uninfected fetal astrocytes: normalized to 18-s rRNA, N = 3; for IFN-α2 expression in uninfected fetal astrocytes: AMP treatment 48 h
Protocol: as §2

ZIKV strain MR766 [3] = assay: Direct inactivation of ZIKV by AMPs, plaque-forming assay; design: species or system Zika virus; conditions: 37°C; for Inactivation of Zika virions: plaque assay on Vero; for Number of infectious virions after direct incubation: 10 µM peptide with ZIKV, all the time points (1, 2, 4 h), plaque assay
Protocol: Vero cells were plated into 12-well plates at 5 (10^5 cells/well the day before infection). On the day of infection, the monolayers of Vero cells were inoculated with 100 µL of 10-fold serial dilutions of viral stocks and incubated at 37 °C for 1 h. After viral inoculation, medium containing ZIKV particles was removed and 1 ml overlay containing 0.6% molecular biology grade agarose (Agarose Unlimited, Alachua, FL, USA) in Modified Eagle Medium (Gibco) with 2% FBS. Cells were maintained at 37°C in 5% CO2 for 4 days. On day 5, cells were fixed with 4% paraformaldehyde solution in PBS and stained with 1% crystal violet solution in 20% methanol in water. Viral plaques were photographed using a CanonScan 9950F scanner and each plaque was counted as a plaque-forming unit (PFU). Viral titer was calculated as PFU/[volume virus (mL) × (dilution factor)].
Zika virus viral stocks were diluted to 10^6 PFU/mL with serum-free medium and peptides were added at the indicated final concentrations. The mixtures were incubated at 37°C for 1–4 h. At each time point, 200 µL of the mixtures was removed for virus yield determination. Ten-fold serial dilutions of the mixtures were prepared and number of infectious Zika virions in the inoculum was determined by the aforementioned plaque-forming assay on Vero cell monolayers.
Figure 7 GF-17 directly inactivates Zika virions. (A) Experimental scheme. Briefly, Zika virus (ZIKV) virions were directly treated with antimicrobial peptides at 37°C. Part of the inoculum was removed at the indicated time points and serial diluted for the plaque-forming assay to determine the number of infectious Zika virions. (B) Quantification of the viral plaques was performed and plaque-forming unit at each of the treatment groups was shown. ANOVA and Bonferroni post-test were performed on all groups. *** p < 0.001, as compared with the ZIKV control group (CTL, control).

[4] = uninfected human fetal astrocytes

| Structure (SMILES) | ZIKV RNA compared with untreated controls (ZIKV strain MR766 [1]) | Reduction of ZIKV RNA levels (ZIKV strain MR766 [2]) | Intracellular ZIKV RNA, % of the untreated ZIKV group (ZIKV strain MR766 [2]; peptide 2 µM) | Intracellular ZIKV RNA, % of the untreated ZIKV group (ZIKV strain MR766 [2]; peptide 10 µM) | Dose dependence of intracellular ZIKV RNA decrease (ZIKV strain MR766 [2]) | IFN-α2 expression in ZIKV-infected fetal astrocytes (IFN-α2) | IFN-α2 expression in uninfected fetal astrocytes (IFN-α2; [4]) | Inactivation of Zika virions (ZIKV strain MR766 [3]; 10 µM peptide mixed with ZIKV (10^6 PFU/mL, serum-free medium), 1-h incubation) | Inactivation of Zika virions (ZIKV strain MR766 [3]; 10 µM peptide mixed with ZIKV, 2-h incubation) | Inactivation of Zika virions (ZIKV strain MR766 [3]; 10 µM peptide mixed with ZIKV, 4-h incubation) | Increase of IFN-α2 expression in uninfected fetal astrocytes (IFN-α2; uninfected human fetal astrocytes, difference not statistically significant) | Number of infectious virions after direct incubation (ZIKV strain MR766 [3]) | Dose dependence of ZIKV RNA decrease (ZIKV strain MR766 [1]; peptide 0.4, 2 and 10 µM, ZIKV MOI 0.5, 48-h post-infection) |
| --- | --- | --- | --- | --- | --- | --- | --- | --- | --- | --- | --- | --- | --- |
| CC[C@H](C)[C@H](NC(=O)[C@H](CCCNC(=N)N)NC(=O)[C@H](CCC(N)=O)NC(=O)[C@@H](NC(=O)[C@@H](NC(=O)[C@H](CCCNC(=N)N)NC(=O)[C@H](CCCCN)NC(=O)[C@H](Cc1ccccc1)NC(=O)CN)[C@@H](C)CC)C(C)C)C(=O)N[C@@H](CCCCN)C(=O)N[C@@H](CC(=O)O)C(=O)N[C@@H](Cc1ccccc1)C(=O)N[C@@H](CC(C)C)C(=O)N[C@@H](CCCNC(=N)N)C(=O)N[C@@H](CC(N)=O)C(=O)N[C@@H](CC(C)C)C(=O)N[C@H](C(N)=O)C(C)C [GF-17] (H-GFKRIVQRIKDFLRNLV-NH2; N-terminus and C-terminus assumed) | significantly decreased ZIKV RNA | over 99% | 46% | 1% | decreased intracellular ZIKV RNA in a dose-dependent manner | significantly increased IFN-α2 expression levels in a dose-dependent manner | significantly increased IFN-α2 expression | > 95% | > 99% | 99% |  |  |  |
| CC[C@H](C)[C@H](NC(=O)[C@H](CCCCN)NC(=O)[C@H](CCCCN)NC(=O)[C@H](Cc1ccccc1)NC(=O)[C@H](CC(C)C)NC(=O)[C@H](CCCCN)NC(=O)[C@H](CCCCN)NC(=O)[C@H](Cc1ccccc1)NC(=O)[C@H](CCCCN)NC(=O)[C@H](CCCCN)NC(=O)[C@H](CCCNC(=N)N)NC(=O)[C@H](Cc1ccccc1)NC(=O)[C@H](CCCNC(=N)N)NC(=O)[C@H](CCCCN)NC(=O)[C@H](Cc1ccccc1)NC(=O)[C@H](CCCNC(=N)N)NC(=O)CN)C(=O)N[C@@H](CO)C(=O)O [BMAP-18] (H-GRFKRFRKKFKKLFKKIS-OH; N-terminus and C-terminus assumed) | significantly decreased ZIKV RNA | > 95% | 15% | 4% | decreased intracellular ZIKV RNA in a dose-dependent manner | significantly increased IFN-α2 expression levels in a dose-dependent manner |  |  |  |  | 7 folds | did not significantly change the number of infectious virions |  |
| CC[C@H](C)[C@H](NC(=O)[C@H](CCCNC(=N)N)NC(=O)[C@H](CCC(N)=O)NC(=O)[C@@H](NC(=O)[C@@H](NC(=O)[C@@H](N)CCCNC(=N)N)[C@@H](C)CC)C(C)C)C(=O)N[C@@H](CCCCN)C(=O)N[C@@H](CC(=O)O)C(=O)N[C@@H](Cc1ccccc1)C(=O)N[C@@H](CC(C)C)C(=O)O [RI-10, reference compound] (H-RIVQRIKDFL-OH; N-terminus and C-terminus assumed) |  |  |  |  | but not RI-10, decreased intracellular ZIKV RNA | but not RI-10, significantly increased IFN-α2 expression levels | did not affect the expression levels of IFN-α2 |  |  |  |  | did not significantly change the number of infectious virions | except RI-10 showed dose-dependent decrease of ZIKV RNA |
